In patent US8901035B2, “Herbicidal compositions comprising 4-amino-3-chloro-5-fluoro-6-(4-chloro-2-fluoro-3-methoxyphenyl) pyridine-2-carboxylic acid or a derivative thereof and cellulose biosynthesis inhibitor herbicides” (Dow AgroSciences LLC, priority 2012, dated 2014):

Experiments:
Assay type in all cases: in vivo
[1] = tested on: Galium aparine L. (GALAP); experiment: Postemergence herbicidal activity of mixtures in cereal crops in the greenhouse
Protocol: (§1) Seeds of the desired test plant species were planted in Sun Gro MetroMix 306 planting mixture, which typically has a pH of 6.0 to 6.8 and an organic matter content of about 30 percent, in plastic pots with a surface area of 103.2 square centimeters (cm^2). When required to ensure good germination and healthy plants, a fungicide treatment and/or other chemical or physical treatment was applied. The plants were grown for 7-36 days in a greenhouse with an approximate 14 hour photoperiod which was maintained at about 18° C. during the day and about 17° C. during the night. Nutrients and water were added on a regular basis and supplemental lighting was provided with overhead metal halide 1000-Watt lamps as necessary. The plants were employed for testing when they reached the second or third true leaf stage.
(§2) Treatments consisted of the benzyl ester of 4-amino-3-chloro-5-fluoro-6-(4-chloro-2-fluoro-3-methoxy-phenyl)pyridine-2-carboxylic acid (Compound A), formulated as an SC, a second cereal herbicide alone and then both in combination.
(§3) Other herbicidal components were applied on an active ingredient basis and included cellulose biosynthesis inhibiting herbicides.
(§4) Measured aliquots of benzyl ester of 4-amino-3-chloro-5-fluoro-6-(4-chloro-2-fluoro-3-methoxy-phenyl)pyridine-2-carboxylic acid (Compound A) were placed in 25 milliliter (mL) glass vials and diluted in a volume of 1.25% (v/v) Agri-Dex® crop oil concentrate to obtain stock solutions. Compound requirements are based upon a 12 mL application volume at a rate of 187 liters per hectare (L/ha). Spray solutions of the second cereal herbicide and experimental compound mixtures were prepared by adding the stock solutions to the appropriate amount of dilution solution to form 12 mL spray solution with active ingredients in two- and three-way combinations. Formulated compounds were applied to the plant material with an overhead Mandel track sprayer equipped with an 8002E nozzle calibrated to deliver 187 L/ha over an application area of 0.503 square meters (m^2) at a spray height of 18 inches (46 cm) above average plant canopy. Control plants were sprayed in the same manner with the solvent blank.
(§5) The treated plants and control plants were placed in a greenhouse as described above and watered by sub-irrigation to prevent wash-off of the test compounds. After 20-22 days, the condition of the test plants as compared with that of the control plants was determined visually and scored on a scale of 0 to 100 percent where 0 corresponds to no injury and 100 corresponds to complete kill.
(§6) Colby's equation was used to determine the herbicidal effects expected from the mixtures (Colby, S. R. 1967. Calculation of the synergistic and antagonistic response of herbicide combinations. Weeds 15:20-22).
(§7) The following equation was used to calculate the expected activity of mixtures containing two active ingredients, A and B: Expected=A+B−(A×B/100)
(§8) A=observed efficacy of active ingredient A at the same concentration as used in the mixture.
(§9) B=observed efficacy of active ingredient B at the same concentration as used in the mixture.

[2] = tested on: Amaranthus retroflexus L. (AMARE); experiment: as above
Protocol: as §1, §2, §3, §4, §5, §6, §7, §8, §9

[3] = tested on: Sinapis arvensis L. (SINAR); experiment: as above
Protocol: as §1, §2, §3, §4, §5, §6, §7, §8, §9

[4] = tested on: Chenopodium album L. (CHEAL); experiment: as above
Protocol: as §1, §2, §3, §4, §5, §6, §7, §8, §9

[5] = tested on: Stellaria media (L.) Vill. (STEME); experiment: as above
Protocol: as §1, §2, §3, §4, §5, §6, §7, §8, §9

[6] = tested on: Cirsium arvense (L.) Scop. (CIRAR); experiment: as above
Protocol: as §1, §2, §3, §4, §5, §6, §7, §8, §9

[7] = tested on: Abutilon theophrasti Medik. (ABUTH); experiment: Pre-emergence soil-applied herbicidal mixtures for weed control (greenhouse)
Excerpt: Seeds or nutlets of the desired test plant species were planted in a soil matrix prepared by mixing a loam soil (e.g., 32 percent silt, 23 percent clay, and 45 percent sand, with a pH of about 6.5 and an organic matter content of about 1.9 percent) and calcareous grit in an 80 to 20 ratio. The soil matrix was contained in plastic pots with a volume of 1 quart and a surface area of 83.6 square centimeters (cm^2).
Treatments consisted of the benzyl ester of 4-amino-3-chloro-5-fluoro-6-(4-chloro-2-fluoro-3-methoxy-phenyl)pyridine-2-carboxylic acid (compound A) formulated as an SC (suspension concentrate) and various herbicidal components alone and in combination. Forms of compound A were applied on an acid equivalent basis.
Other herbicidal components were applied on an acid equivalent or active ingredient basis and included the cellulose biosynthesis inhibiting herbicides, isoxaben formulated as Gallery® 75DF and indaziflam formulated as Specticle® 20WSP.
Treatment requirements were calculated based upon the rates being tested, the concentration of active ingredient or acid equivalent in the formulation, and a 12 mL application volume at a rate of 187 L/ha.
For treatments comprised of formulated compounds, measured amounts of compounds were placed individually in 25 mL glass vials and diluted in a volume of 1.25% (v/v) Agri-Dex® crop oil concentrate (COC) to obtain 12× stock solutions. […] Application solutions were prepared by adding an appropriate amount of each stock solution (e.g., 1 mL) and diluted to the appropriate final concentrations with the addition of 10 mL of an aqueous mixture of 1.25% (v/v) COC so that the final spray solutions contained 1.25% (v/v) COC.
All stock solutions and applications solutions were visually inspected for compound compatibility prior to application. Spray solutions were applied to the soil with an overhead Mandel track sprayer equipped with a 8002E nozzles calibrated to deliver 187 L/ha over an application area of 0.503 m^2 at a spray height of 18 inches (46 cm) above average pot height. Control pots were sprayed in the same manner with the solvent blank.
The treated and control pots were placed in a greenhouse and top watered as needed. When required to ensure good germination and healthy plants, a fungicide treatment and/or other chemical or physical treatment was applied. The pots were maintained in a greenhouse with an approximate 14 hr. photoperiod which was maintained at about 29° C. during the day and 26° C. during the night. Nutrients (Peters® Excel 15-5-15 5-Ca 2-Mg) were applied in the irrigation solution as needed and water was added on a regular basis. Supplemental lighting was provided with overhead metal halide 1000-Watt lamps as necessary. After approximately 4 weeks, the condition of the test plants as compared with that of the untreated plants was determined visually and scored on a scale of 0 to 100 percent where 0 corresponds to no injury or growth inhibition and 100 corresponds to complete kill.
as §6, §7, §8, §9

[8] = Compound A Benzyl Ester 2.5 g ai/ha alone
[9] = Compound A Benzyl Ester 5 g ai/ha alone
[10] = Compound A Benzyl Ester 10 g ai/ha alone

## COc1c(Cl)ccc(-c2nc(C(=O)OCc3ccccc3)c(Cl)c(N)c2F)c1F [Compound A Benzyl Ester, benzyl ester of 4-amino-3-chloro-5-fluoro-6-(4-chloro-2-fluoro-3-methoxy-phenyl)pyridine-2-carboxylic acid]
[1]; [8]
  Visual Weed Control (%) - 21 DAA Obs: 55%
[1]; [9]
  Visual Weed Control (%) - 21 DAA Obs: 66%
[1]; [10]
  Visual Weed Control (%) - 21 DAA Obs: 77%
[2]; [8]
  Visual Weed Control (%) - 21 DAA AMARE Obs: 20%
[2]; [9]
  Visual Weed Control (%) - 21 DAA AMARE Obs: 38%
[3]; [8]
  Visual Weed Control (%) - 21 DAA SINAR Obs: 70%
[3]; [9]
  Visual Weed Control (%) - 21 DAA SINAR Obs: 73%
[4]; [8]
  Visual Weed Control (%) - 21 DAA CHEAL Obs: 50%
[4]; [9]
  Visual Weed Control (%) - 21 DAA CHEAL Obs: 58%
[5]; [8]
  Visual Weed Control (%) - 21 DAA Obs: 25%
[5]; [9]
  Visual Weed Control (%) - 21 DAA Obs: 25%
[5]; [10]
  Visual Weed Control (%) - 21 DAA Obs: 27%
[6]; [9]
  Visual Weed Control (%) - 21 DAA Obs: 39%
[6]; [10]
  Visual Weed Control (%) - 21 DAA Obs: 60%
[7]; Compound A Benzyl Ester 16 g ae/ha alone
  Visual Weed Control (%) - 27 DAA ABUTH Obs: 48%
[7]; Compound A Benzyl Ester 32 g ae/ha alone
  Visual Weed Control (%) - 27 DAA ABUTH Obs: 87%

## CCC(C)(CC)c1cc(NC(=O)c2c(OC)cccc2OC)on1 [Isoxaben, N-[3-(1-ethyl-1-methylpropyl)-5-isoxazolyl]-2,6-dimethoxybenzamide, reference compound]
[1]; Isoxaben 31.25 g ai/ha alone
  Visual Weed Control (%) - 21 DAA Obs: 0%
[1]; Isoxaben 62.5 g ai/ha alone
  Visual Weed Control (%) - 21 DAA Obs: 8%
[1]; Isoxaben 125 g ai/ha alone
  Visual Weed Control (%) - 21 DAA Obs: 12%
[2]; Isoxaben 31.25 g ai/ha alone
  Visual Weed Control (%) - 21 DAA AMARE Obs: 0%
[2]; Isoxaben 62.5 g ai/ha alone
  Visual Weed Control (%) - 21 DAA AMARE Obs: 8%
[3]; Isoxaben 31.25 g ai/ha alone
  Visual Weed Control (%) - 21 DAA SINAR Obs: 13%
[3]; Isoxaben 62.5 g ai/ha alone
  Visual Weed Control (%) - 21 DAA SINAR Obs: 13%
[4]; Isoxaben 31.25 g ai/ha alone
  Visual Weed Control (%) - 21 DAA CHEAL Obs: 5%
[4]; Isoxaben 62.5 g ai/ha alone
  Visual Weed Control (%) - 21 DAA CHEAL Obs: 5%
[5]; Isoxaben 31.25 g ai/ha alone
  Visual Weed Control (%) - 21 DAA Obs: 5%
[5]; Isoxaben 62.5 g ai/ha alone
  Visual Weed Control (%) - 21 DAA Obs: 5%
[6]; Isoxaben 31.25 g ai/ha alone
  Visual Weed Control (%) - 21 DAA Obs: 3%
[6]; Isoxaben 62.5 g ai/ha alone
  Visual Weed Control (%) - 21 DAA Obs: 13%
[6]; Isoxaben 125 g ai/ha alone
  Visual Weed Control (%) - 21 DAA Obs: 17%
[7]; Isoxaben 560 g ai/ha alone
  Visual Weed Control (%) - 27 DAA ABUTH Obs: 77%
[7]; Isoxaben 1120 g ai/ha alone
  Visual Weed Control (%) - 27 DAA ABUTH Obs: 67%
